In general, half-life refers to how long it takes for the measured level to halve.

Each structure is given as a SMILES string.

The test system of the data set is human liver microsomes, metabolic stability half-life. The data set is described as follows: NCATS Human Liver Microsomal (HLM) Stability Profiling. Particulars: higher = more stable; screened at 1 µM (by protocol). The text has this:
Assay submitter (PI): Dr. Pranav Shah
NIH Center for Advancing Translational Sciences
Pharmacokinetic issues were the leading cause of drug attrition, accounting for approximately 40% of all cases before the turn of the century. To this end, several high-throughput in vitro assays like microsomal stability have been developed to evaluate the pharmacokinetic profiles of compounds in early stages of drug discovery. At NCATS, a single-point rat liver microsomal (RLM) stability assay is used as a Tier I assay, while human liver microsomal (HLM) stability is employed as a Tier II assay. While it is beneficial to have compound libraries screened for HLM stability, the increasing magnitude of hits routinely generated, and the time- and re-source-intensive nature of the assay makes it important to find alternatives. One strategy is to rely on in silico models that have been developed using data generated from these assays. Herein, we describe the development of an HLM stability prediction model using our in-house dataset of ~7,000 compounds, employing both traditional and advanced machine learning methods. Additionally, the strong correlation between our RLM and HLM data was further reinforced by the fact that our HLM model performance improved after adding RLM stability predictions as an input descriptor. […] The best model along with a subset of our dataset has been made publicly accessible on the NCATS@ADME website for the benefit of the greater drug discovery community.
Microsomal Stability Assay
The substrate depletion method, also called the in vitro t1/2 method was used to analyze test compounds. Incubation and liquid handling were carried out using a previously described method (Shah et al., 2016). Briefly, each reaction mixture (110 µL) consisted of a test article (1 µM), human liver microsomes (0.5 mg/mL), and NADPH regenerating system in phosphate buffer at pH 7.4. Samples were incubated in 384-well plates at 37 degrees C for 0, 5, 10, 15, 30 and 60 min. At each time point, 10 µL of the incubation mixture was aspirated into another 384-well plate which contained cold acetonitrile (ACN) with internal standard (albendazole). All plates were centrifuged at 3000 rpm for 20 min at 4 degrees C, and the supernatants were transferred to a 384-well injection plate. Sample quantification and analysis was performed using a previously described method (Shah et al., 2016, Siramshetty et al., 2020).
1: Shah, P. et al. An Automated High-Throughput Metabolic Stability Assay Using an Integrated High-Resolution Accurate Mass Method and Automated Data Analysis Software. Drug Metab Dispos 44, 1653-1661 (2016).
2: Siramshetty et al. Retrospective assessment of rat liver microsomal stability at NCATS: data and QSAR models. Sci Rep 26;10(1):20713 (2020).
The compound `O=C1N(c2ccccc2)c2ccccc2C1(Cc1ccncc1)Cc1ccncc1` gave a half-life of 1.71 min. Next, `O=C(O)Cc1sc(-c2ccccc2)nc1-c1ccc(Cl)cc1`: 2.82 min; `O=C(Nc1ncc(-c2cc(C(F)F)nn2-c2c(Cl)cccc2Cl)s1)C1CC1`: > 120 min; `COCCOc1nc(N)c2[nH]c(=O)n(Cc3ccc(C(=O)O)cc3)c2n1`: > 120 min.

As for `Clc1ccc(C2(c3ccc(-c4cn[nH]c4)cc3)CCNCC2)cc1`, the half-life was > 120 min. Next, `Cc1ccc2c(c1)c1c3n2CCNC3CCC1` (stereo not drawn): 8.9 min; `CC(Cc1ccccc1)NCc1ccccc1Cl` (stereo not drawn): 10.6 min; `O=C(OCC(O)CO)c1ccccc1Nc1ccnc2c(C(F)(F)F)cccc12` (stereo not drawn): 34.6 min.

In the case of `OCCCNc1cc(-c2ccnc(Nc3cccc(Cl)c3)n2)ccn1`, the half-life turned out to be 24.5 min. For `COc1cc2c(Oc3ccc(-c4cnc(Nc5ccc(F)cc5)n(C)c4=O)cc3F)ccnc2cc1OCCCN1CCOCC1` the value was 30.6 min; for `O=C(CCCCCn1c(=O)c2sccc2n(CC(=O)Nc2cccc(Cl)c2)c1=O)NCc1ccc2c(c1)OCO2`, 9.36 min. For `COc1ccc(C(CN(C)C)C2(O)CCCCC2)cc1` (stereo not drawn) the value was > 120 min; for `O=C(O)c1ccc(-c2ccc(N3CCCCCC3)nc2)cc1`, > 120 min; for `COc1ccc(-c2nc3ccccc3c(=O)n2Cc2ccco2)cc1COc1ccc(NC(C)=O)cc1`, 1.85 min. Next, `CCN1CCN(Cc2ccc(NC(=O)c3ccc(C)c(/C=C/c4cnc5[nH]ccc5c4OC)c3)cc2C(F)(F)F)CC1`: > 120 min; `COc1ccc(C(=O)Oc2ccc(C(c3c(C)[nH][nH]c3=O)c3c(C)[nH][nH]c3=O)cc2)cc1`: 1.55 min. As to `COc1ccc(OCC(=O)Nc2cc(-c3nc4ccccc4s3)ccc2C)cc1`, the half-life came to 3.38 min. Take `CN(C)CCCO[C@H]1C([C@H](O)CO)O[C@@H]2OC(C)(C)O[C@@H]21` (stereo partly drawn): the half-life was 78.9 min. With `CCOC(=O)Nc1ccc(NCc2ccc(F)cc2)cc1N`, the half-life was > 120 min. Compound `Cc1cncn1CCc1nc2c3ccccc3nc(SCC(=O)Nc3cccc(Cl)c3)n2n1` came in with a half-life of 11.6 min. Next, `CN1CCN(c2cccc(Nc3nc4c(-c5ccc(S(C)(=O)=O)cc5)cccn4n3)c2)CC1`: > 120 min; `O=[N+]([O-])c1cn2c(n1)OC[C@@H](OCc1ccc(OC(F)(F)F)cc1)C2`: > 120 min. For `CC(=O)NC[C@H]1CN(c2ccc(N3CCSCC3)c(F)c2)C(=O)O1` the value was > 120 min; for `CCN(CC)C(C)C(=O)c1ccccc1` (stereo not drawn), > 120 min; for `CCC(=C(c1ccccc1)c1ccc(OCCN(C)C)cc1)c1ccccc1`, 94.5 min. Next, `COc1ccc(C2Sc3ccccc3N(CCN(C)C)C(=O)C2OC(C)=O)cc1` (stereo not drawn): 68.1 min; `Cc1cnc(Nc2cccc(CN3CCOCC3)c2)nc1Nc1cccc(S(=O)(=O)NC(C)(C)C)c1`: 19.5 min; `CCCC(C)(COC(N)=O)COC(=O)NC(C)C` (stereo not drawn): > 120 min. As for `CC(C(=O)O)c1ccc2c(c1)[nH]c1ccc(Cl)cc12` (stereo not drawn), the half-life is > 120 min. Compound `CCc1cc2cc(OC)c(OC)cc2c(Cc2ccccc2)n1` displayed a half-life of 8.36 min. Next, `Cc1noc(C)c1-c1cc(O)cc(C(O)c2ccccc2)c1` (stereo not drawn): 46.2 min. Next, `Cc1ccc(C2=Nc3ccccc3N(CC(=O)Nc3ccccc3F)C(=O)C2)cc1C`: 6.23 min; `CCn1c(C(=O)NCc2ccccc2Cl)cc2sc(Cl)cc21`: 7.52 min. Next, `CN(C)CCN(Cc1ccc(Cl)cc1)c1ccccn1`: 18.8 min; `CCOP(=S)(OCC)Oc1nc(Cl)c(Cl)cc1Cl`: 1.81 min. As for `C[C@@H](Oc1cc(-n2cnc3ccc(OC4CCN(C)CC4)cc32)sc1C(N)=O)c1ccccc1C(F)(F)F`, the half-life is 8.99 min.

The compound `COc1ccc2nc([C@H]3CCN(Cc4cccc(C#N)c4)C3)[nH]c2c1` returned a half-life of 12.3 min. For `COc1cc2c(C(=O)N(C)c3cccc(C(F)(F)F)c3)cn(CC(C)C)c(=O)c2cc1OC` the value was 0.93 min; for `Cc1nc2ccc(CN(C)c3ccc(C(=O)NC(CCC(=O)O)C(=O)O)s3)cc2c(=O)[nH]1` (stereo not drawn), > 120 min. For `CCCN(CCN1CCN(c2ccccc2OC)CC1)C1CCc2ncsc2C1` (stereo not drawn) the value was 2.54 min; for `CCOC(=O)[C@H](CCc1ccccc1)N[C@H]1CCc2ccccc2N(CC(=O)O)C1=O`, 18.6 min; for `CC(C)(C)NC[C@H](O)COc1cccc2c1CCCC2=O`, > 120 min.

Consider `O=c1cc(OCc2ccc(F)cc2)ccn1-c1ccc(OCCN2CCCC2)cc1`, for which the half-life is > 120 min. For `CN(C)Cc1c(C(=O)NCCOc2ccc(C(=O)NO)cc2)oc2ccccc12` the value was > 120 min; for `CCOP(=O)(OCC)Oc1cc(C)nc(C(C)C)n1`, 99.9 min; for `CN1C2CCC(C)(C)C1CC(OC(=O)C(O)(c1cccs1)c1cccs1)C2` (stereo not drawn), 26.5 min. For `CC1=C(C(=O)Nc2cc3cn[nH]c3cc2F)C(c2ccc(Cl)cc2F)N=C(c2ccnc(Cl)c2)N1` (stereo not drawn) the value was 14.2 min; for `Cc1ncc(Cl)cc1NCc1ccc(C(=O)NC(CC2CCCC2)C(=O)NC2CC2)s1` (stereo not drawn), 6.13 min. Take `COc1cc(C(=O)OC(COCCC(C)C)CN2CCOCC2)cc(OC)c1OC` (stereo not drawn): the half-life worked out at 2.43 min. As to `ClCCN1CCCC1`, the half-life was determined as 55.7 min. `CCn1c(-c2nonc2N)nc2c(C#CCO)ncc(OCCCN)c21`: the half-life is > 120 min. Next, `Nc1nc(NCC2CCC(CNS(=O)(=O)c3cccc4ccccc34)CC2)nc2ccccc12` (stereo not drawn): 1.35 min; `FC(F)(F)c1ccccc1-c1cc(C(F)(F)F)c2nc(C3=NOC4(CCCCC4)C3)[nH]c2c1`: 67.7 min; `O=C(Nc1cccc(C(F)(F)F)c1)Nc1cc(S(=O)(=O)NC2CC2)ccc1-c1ccsc1`: 4.46 min. `CCN1CCN(C(=O)Cc2ccc(Nc3ncc(F)c(Nc4ccc(C(=O)Nc5ccccc5Cl)cc4)n3)cc2)CC1` showed a half-life of 4.23 min. For `COC(=O)[C@H](Cc1cccc(C(=N)N)c1)[C@@H](C)NC(=O)c1ccc(-c2cc[n+]([O-])cc2)cc1` the value was > 120 min.

Compound `CN(C(=O)c1ccc(F)cc1C(F)(F)F)C1CCN(c2nnc(-c3ccnn3C)c3ccccc23)CC1` gave a half-life of 30.3 min. Consider `CC(=O)Nc1ccc(OC[C@@H](O)CNC(C)C)cc1`, for which the half-life is > 120 min.

In turn, `CCOC(=O)Cn1cccc1-c1nc(-c2ccc(OC)cc2)c(-c2ccc(OC)cc2)s1` displayed a half-life of 0.96 min.

`COC(=O)c1cc(S(N)(=O)=O)ccc1OC` came in with a half-life of 43.2 min. For `O=C(O)c1ccc(OCCN2CCCCC2)cc1` the value was > 120 min; for `COc1cc(Nc2nc3ccccc3nc2NS(=O)(=O)c2cccc(NC(=O)c3ccc(C)c(OC)c3)c2)cc(OC)c1`, 14 min; for `Cc1nn(CC(=O)NCCc2ccccc2)c(=O)c2c1sc1ccccc12`, 6.82 min.

For the compound `CCNCc1nc2c(N)nc3ccccc3c2n1CC(C)(C)O`, the half-life was > 120 min. Next, `CN(C)c1ccc2nc3ccc(=[N+](C)C)cc-3sc2c1`: > 120 min; `O=C(Cc1ccc(-c2ccccc2)cc1)NC1CCC1`: 1.5 min.

Consider `CN1C(C(=O)Nc2ccccn2)=C(O)c2sccc2S1(=O)=O`, for which the half-life was > 120 min. For `CCCCCCCCC(=O)NCc1ccc(O)c(OC)c1` the value was 3.71 min. Compound `O=C(CCNc1c(-c2cccc(F)c2)nc2cnccn12)N1CCCC1` displayed a half-life of 4.93 min.

The compound `COc1ccc(Nc2nnc(-c3ccc(C)c(S(=O)(=O)NCc4nc5ccccc5[nH]4)c3)c3ccccc23)cc1` yielded a half-life of 5.8 min.

As for `COc1cccc2c1C(=O)c1c(O)c3c(c(O)c1C2=O)C[C@@](O)(C(=O)CO)C[C@@H]3O[C@H]1C[C@H](N)[C@H](O[C@@H]2CCCCO2)[C@H](C)O1`, the half-life is > 120 min.

Regarding `CNCC[C@@H](Oc1ccccc1C)c1ccccc1`, the half-life worked out at 23.9 min. For `CN(C)CC#CCCC(=O)C(O)(c1ccccc1)C1CCC1` (stereo not drawn) the value was 102 min; for `CCOc1cc(=O)n2c(c1C(=O)Nc1ccc(C#N)cc1)CCCC2`, > 120 min; for `COc1ccc(Nc2cc(-c3cnc(N)nc3)nc(N3CCOCC3)n2)cn1`, 39.3 min. For `C[C@]12C=CC(=O)C=C1CCC1C3C[C@@H](O)[C@](O)(C(=O)CO)[C@@]3(C)C[C@H](O)[C@@]12F` (stereo partly drawn) the value was > 120 min; for `CC(=O)N1C[C@H](O)C[C@H]1C(=O)O`, 50.1 min.

For `Cc1cc(=O)oc2cc(O)ccc12`, the half-life is 60.6 min.
